From patent US11046709B2, “Fused 1,4-diazepines as BET bromodomain inhibitors” (THE REGENTS OF THE UNIVERSITY OF MICHIGAN, priority 2017, dated 2021)
Like-named read-outs stand apart in the source and are kept apart here.

How the values were obtained:
MOLM-13 = test: Cell growth inhibition, 4-day proliferation assay, MOLM-13; format: cell-based; details: Homo sapiens, MOLM-13, 96 h, read-out: Cell IC50 (nM) MOLM13
Method: (§1) The effect of representative Compounds of the Disclosure on cell viability was determined in a 4-day proliferation assay. Cells were maintained in the appropriate culture medium with 100/0 FBS at 37° C. and an atmosphere of 5% CO2. All the cell lines were used within three months of thawing fresh vials.
(§2) In general, cells were seeded in 96-well flat bottom (Corning COSTAR, Corning, N.Y., cat #3595) or white opaque cell culture plates (BD Falcon, cat #353296) at a density of 3,000-10,000 cells/well in 75 μl of culture medium. Compounds were serially diluted in the appropriate medium, and 75 μl of the diluted compounds were added to the appropriate wells of the cell plate. After the addition of compounds, the cells were incubated at 37° C. in an atmosphere of 5% CO2 for 4 days. Cell viability was determined using the CellTiter-Glo® Luminescent Cell Viability Assay Kit (Promega, Madison, Wis.) for leukemia cells and WST (2-(2-methoxy-4-nitrophenyl)-3-(4-nitrophenyl)-5-(2,4-disulfophenyl)-2H-tetrazolium, monosodium salt) Cell Counting-8 Kit (Dojindo Molecular Technologies, Inc., Rockville, Md.) for adherent cells according to the manufacturers' instructions.
(§3) For WST assay (adherent cells), WST-8 reagent was added to each well at a final concentration of 10% (v/v), and then the plates were incubated at 37° C. for 1-2 hours for color development. The absorbance was measured at 450 nm using a SPECTRAmax PLUS plate reader (Molecular Devices, Sunnyvale, Calif.). The readings were normalized to the DMSO-treated cells and the half maximal inhibitory concentration (IC50) was calculated by nonlinear regression (four parameters sigmoid fitted with variable slope, least squares fit, and no constraint) analysis using the GraphPad Prism 5 software (GraphPad Software, La Jolla, Calif.).
(§4) For CellTiter-Glo assay (suspension cells), 100 μl of CellTiter-Glo® Reagent was added to each well, and then the plates were incubated at room temperature for 10-20 minutes. The luminescent signal was measured using a Tecan Infinite M1000 multimode microplate reader (Tecan, Morrisville, N.C.). The readings were normalized to the DMSO-treated cells and the IC50 was calculated by nonlinear regression (four parameters sigmoid fitted with variable slope, least squares fit, and no constraint) analysis using the GraphPad Prism 5 software. See US 2014/0256706.
(§5) For a number of representative compounds in Table 5, their IC50 values in cell growth inhibition activity in the RS4;11 and MOLM-13 human leukemia cell lines and the MDA-MB-231 breast cancer cell line were evaluated using the WST-8 assay described in EXAMPLE 7, with the data shown in Table 7.

MDA-MB-231 = test: Cell growth inhibition, 4-day proliferation assay, MDA-MB-231; format: cell-based; details: Homo sapiens, MDA-MB-231, 96 h, read-out: Cell IC50 (nM) MDA-MB-231
Method: as §1, §2, §3, §4, §5

recombinant BRD4 BD2 = biological target: T1, recombinant BRD4 BD2 (Homo sapiens, UniProt O60885); test: Competitive fluorescence-polarization (FP) binding assay, BRD4 BD2
T1 construct: for recombinant BRD4 BD1 and BRD4 BD2 proteins
Method: Fluorescence Polarization (FP) competitive binding studies were carried out using a FAM labeled fluorescent probe, see, e.g., Cpd. No. 350 of US 2014/0256706, to determine binding affinities of representative Compounds of the Disclosure for recombinant BRD4 BD1 and BRD4 BD2 proteins. Equilibrium dissociation constants (Kd) values of the fluorescent probe to BRD4 BD1 and BD2 proteins were determined from protein saturation experiments by monitoring the total fluorescence polarization of mixtures composed with the fluorescent probe at a fixed concentration and proteins with increasing concentrations up to full saturation. Serial dilutions of testing proteins were mixed with the fluorescent probe to a final volume of 200 μl in the assay buffer (100 mM phosphate buffer, pH=6.5, 0.01% Triton X-100 (Sigma, 282103) being added right before assays). Final fluorescent probe concentration was 1.5 nM for both proteins. Plates were incubated at room temperature for 30 minutes with gentle shaking to assure equilibrium. FP values in millipolarization units (mP) were measured using the Infinite M-1000 plate reader (Tecan U.S., Research Triangle Park, N.C.) in Microfluor 1 96-well, black, round-bottom plates (Thermo Scientific, Waltham, Mass.) at an excitation wavelength of 485 nm and an emission wavelength of 530 nm. Kd values of the fluorescent probe, which were calculated by fitting the sigmoidal dose-dependent FP increases as a function of protein concentrations using Graphpad Prism 6.0 software (Graphpad Software, San Diego, Calif.), are 5.5 and 3.0 nM to BDR4 BD1 and 2, respectively.
The IC50 and Ki values of compounds were determined in a competitive binding experiment. See US 2014/0256706. Mixtures of 10 μl of the tested compounds in assay buffer with 40% Ethylene Glycol and 190 μl of preincubated protein/probe complex solution in the assay buffer (100 mM potassium phosphate, pH 6.5, 0.01% Triton X-100) were added into assay plates which were incubated at room temperature for 30 minutes with gentle shaking. Final concentrations of proteins were 10 and 6 nM in assays for BRD4 BD1 and BD2, respectively. Final probe concentration is 1.5 nM in both assays. Negative controls containing protein/probe complex only (equivalent to 0% inhibition), and positive controls containing only free probes (equivalent to 100% inhibition), were included in each assay plate. FP values were measured as described above. IC50 values were determined by nonlinear regression fitting of the competition curves. Instead of being calculated from IC50 values as described before. Ki values of competitive inhibitors were obtained directly by nonlinear regression fitting as well, based upon the Kd values of the probe to different proteins, and concentrations of the proteins and probes in the competitive assays (US 2014/0256706; Wang, FEBS Lett. 360:111 (1995); Zhang et al., Analytical Biochemistry, 331:138 (2004)).
Representative compounds in Table 5 were evaluated for their binding affinities to BRD4 BD1 and BD2 proteins using the Competitive Fluorescence-Polarization (FP) Assays described in Example 6, with the data included in Table 6.

[1] = 4-day proliferation assay, Table 4

## Cc1c(C#Cc2ccccn2)sc2c1C(c1ccc(Cl)cc1)=N[C@@H](C)c1nnc(C)n1-2 [Cpd. No. 2, (S)-4-(4-chlorophenyl)-3,6,9-trimethyl-2-(pyridin-2-ylethynyl)-6H-thieno[3,2-f][1,2,4]triazolo[4,3-a][1,4]diazepine]
MOLM-13
  IC50: 15.7 ± 0.43 nM
MDA-MB-231
  IC50: 31 nM
Recombinant BRD4 BD2
  IC50: 14.5 nM

## Cc1c(C#Cc2cccnc2)sc2c1C(c1ccc(Cl)cc1)=NCc1nnc(C)n1-2 [Cpd. No. 3, 4-(4-chlorophenyl)-3,9-dimethyl-2-(pyridin-3-ylethynyl)-6H-thieno[3,2-f][1,2,4]triazolo[4,3-a][1,4]diazepine]
MOLM-13
  IC50: 145 ± 13.7 nM
MDA-MB-231
  IC50: 151 ± 19 nM
Recombinant BRD4 BD2
  IC50: 124 nM

## Cc1c(C#Cc2cccnc2)sc2c1C(c1ccc(Cl)cc1)=N[C@@H](C)c1nnc(C)n1-2 [Cpd. No. 4, (S)-4-(4-chlorophenyl)-3,6,9-trimethyl-2-(pyridin-3-ylethynyl)-6H-thieno[3,2-f][1,2,4]triazolo[4,3-a][1,4]diazepine]
MOLM-13
  IC50: 10.5 ± 0.24 nM
MDA-MB-231
  IC50: 2.63 ± 0.6 nM
Recombinant BRD4 BD2
  IC50: 12.5 nM

## Cc1c(C#Cc2cncnc2)sc2c1C(c1ccc(Cl)cc1)=NCc1nnc(C)n1-2 [Cpd. No. 5, 4-(4-chlorophenyl)-3,9-dimethyl-2-(pyrimidin-5-ylethynyl)-6H-thieno[3,2-f][1,2,4]triazolo[4,3-a][1,4]diazepine]
MOLM-13
  IC50: 176 ± 25.5 nM
MDA-MB-231
  IC50: 214 ± 35.2 nM
Recombinant BRD4 BD2
  IC50: 305 nM

## Cc1c(C#Cc2cncnc2)sc2c1C(c1ccc(Cl)cc1)=N[C@@H](C)c1nnc(C)n1-2 [Cpd. No. 6, (S)-4-(4-chlorophenyl)-3,6,9-trimethyl-2-(pyrimidin-5-ylethynyl)-6H-thieno[3,2-f][1,2,4]triazolo[4,3-a][1,4]diazepine]
MOLM-13
  IC50: 15.6 ± 1.7 nM
MDA-MB-231
  IC50: 17.8 ± 19 nM
Recombinant BRD4 BD2
  IC50: 16 nM

## Cc1c(C#Cc2ccncc2)sc2c1C(c1ccc(Cl)cc1)=NCc1nnc(C)n1-2 [Cpd. No. 7, 4-(4-chlorophenyl)-3,9-dimethyl-2-(pyridin-4-ylethynyl)-6H-thieno[3,2-f][1,2,4]triazolo[4,3-a][1,4]diazepine]
MOLM-13
  IC50: 144 ± 16.3 nM
MDA-MB-231
  IC50: 660 ± 83.6 nM
Recombinant BRD4 BD2
  IC50: 1670 nM

## Cc1c(C#Cc2ccncc2)sc2c1C(c1ccc(Cl)cc1)=N[C@@H](C)c1nnc(C)n1-2 [Cpd. No. 8, (S)-4-(4-chlorophenyl)-3,6,9-trimethyl-2-(pyridin-4-ylethynyl)-6H-thieno[3,2-f][1,2,4]triazolo[4,3-a][1,4]diazepine]
MOLM-13
  IC50: 13.5 ± 0.8 nM
MDA-MB-231
  IC50: 64.5 ± 22.7 nM
Recombinant BRD4 BD2
  IC50: 10.4 nM

## Cc1c(C#CCO)sc2c1C(c1ccc(Cl)cc1)=NCc1nnc(C)n1-2 [Cpd. No. 9, 3-(4-(4-chlorophenyl)-3,9-dimethyl-6H-thieno[3,2-f][1,2,4]triazolo[4,3-a][1,4]diazepin-2-yl)prop-2-yn-1-ol]
MOLM-13
  IC50: 215 nM
MDA-MB-231
  IC50: 412 nM
Recombinant BRD4 BD2
  IC50: 126 nM

## Cc1c(C#CCO)sc2c1C(c1ccc(Cl)cc1)=N[C@@H](C)c1nnc(C)n1-2 [Cpd. No. 10, (S)-3-(4-(4-chlorophenyl)-3,6,9-trimethyl-6H-thieno[3,2-f][1,2,4]triazolo[4,3-a][1,4]diazepin-2-yl)prop-2-yn-1-ol]
MOLM-13
  IC50: 30.5 nM
MDA-MB-231
  IC50: 31.8 nM
Recombinant BRD4 BD2
  IC50: 11.8 nM

## Cc1c(C#CCCCO)sc2c1C(c1ccc(Cl)cc1)=N[C@@H](C)c1nnc(C)n1-2 [Cpd. No. 11, (S)-5-(4-(4-chlorophenyl)-3,6,9-trimethyl-6H-thieno[3,2-f][1,2,4]triazolo[4,3-a][1,4]diazepin-2-yl)pent-4-yn-1-ol]
MOLM-13
  IC50: 6.87 nM
MDA-MB-231
  IC50: < 1.7 nM
Recombinant BRD4 BD2
  IC50: 7.22 nM

## Cc1c(C#Cc2cnn(CCCO)c2)sc2c1C(c1ccc(Cl)cc1)=N[C@@H](C)c1nnc(C)n1-2 [Cpd. No. 12, (S)-3-(4-((4-(4-chlorophenyl)-3,6,9-trimethyl-6H-thieno[3,2-f][1,2,4]triazolo[4,3-a][1,4]diazepin-2-yl)ethynyl)-1H-pyrazol-1-yl)propan-1-ol]
MOLM-13
  IC50: 3.74 nM
MDA-MB-231
  IC50: 31.5 nM
Recombinant BRD4 BD2
  IC50: 10.8 nM

## Cc1c(C#Cc2ccc(CCCCO)cn2)sc2c1C(c1ccc(Cl)cc1)=N[C@@H](C)c1nnc(C)n1-2 [Cpd. No. 13]
MOLM-13; [1]
  IC50: 23 nM
MDA-MB-231; [1]
  IC50: 84.4 nM
Recombinant BRD4 BD2; competitive FP, Table 3, read-out: Binding Affinity BRD4-BD2 IC50
  IC50: 11.1 nM

## Cc1c(C#Cc2cnn(CC(=O)O)c2)sc2c1C(c1ccc(Cl)cc1)=N[C@@H](C)c1nnc(C)n1-2 [Cpd. No. 14, (S)-2-(4-((4-(4-chlorophenyl)-3,6,9-trimethyl-6H-thieno[3,2-f][1,2,4]triazolo[4,3-a][1,4]diazepin-2-yl)ethynyl)-1H-pyrazol-1-yl)acetic acid]
MOLM-13
  IC50: 964 nM
MDA-MB-231
  IC50: 965 nM
Recombinant BRD4 BD2
  IC50: 12.3 nM

## COCC#Cc1sc2c(c1C)C(c1ccc(Cl)cc1)=N[C@@H](C)c1nnc(C)n1-2 [Cpd. No. 15, (S)-4-(4-chlorophenyl)-2-(3-methoxyprop-1-yn-1-yl)-3,6,9-trimethyl-6H-thieno[3,2-f][1,2,4]triazolo[4,3-a][1,4]diazepine]
MOLM-13
  IC50: 25.6 nM
MDA-MB-231
  IC50: 51.1 nM
Recombinant BRD4 BD2
  IC50: 11.3 nM

## Cc1c(C#CCN(C)C)sc2c1C(c1ccc(Cl)cc1)=N[C@@H](C)c1nnc(C)n1-2 [Cpd. No. 16, (S)-3-(4-(4-chlorophenyl)-3,6,9-trimethyl-6H-thieno[3,2-f][1,2,4]triazolo[4,3-a][1,4]diazepin-2-yl)-N,N-dimethylprop-2-yn-1-amine]
MOLM-13
  IC50: 27.9 nM
MDA-MB-231
  IC50: 40.9 nM
Recombinant BRD4 BD2
  IC50: 58.9 nM

## Cc1c(C#Cc2ccnn2C)sc2c1C(c1ccc(Cl)cc1)=N[C@@H](C)c1nnc(C)n1-2 [Cpd. No. 17, (S)-4-(4-chlorophenyl)-3,6,9-trimethyl-2-((1-methyl-1H-pyrazol-5-yl)ethynyl)-6H-thieno[3,2-f][1,2,4]triazolo[4,3-a][1,4]diazepine]
MOLM-13
  IC50: 23.7 nM
MDA-MB-231
  IC50: 14.6 nM
Recombinant BRD4 BD2
  IC50: 14.4 nM

## Cc1c(C#Cc2ccc(N)nc2)sc2c1C(c1ccc(Cl)cc1)=N[C@@H](C)c1nnc(C)n1-2 [Cpd. No. 18, (S)-5-((4-(4-chlorophenyl)-3,6,9-trimethyl-6H-thieno[3,2-f][1,2,4]triazolo[4,3-a][1,4]diazepin-2-yl)ethynyl)pyridin-2-amine]
MOLM-13
  IC50: 9.63 nM
MDA-MB-231
  IC50: 2.44 nM
Recombinant BRD4 BD2
  IC50: 8.84 nM
